# According to patent US7273712B2, “Methods and compositions for detecting compounds that modulate inflammatory responses” (Reddy US Therapeutics, Inc., priority 2000, dated 2007):
# What was measured:
# [1] = test system: IL-6 secretion by endothelial cells (HMVEC); assay: AGE-induced inflammatory response determined by IL-6 ELISA; assay type: cell-based, human; settings: 24 hrs
# Description: These cell were allowed to reach >90% confluency before being subjected to experimental treatments. G-HSA was from US Biologicals. Tumor necrosis factor α (TNFα) was from R&D Systems.
# HMVEC were treated with control medium or medium containing 100 ng/ml TNFα or 300 μg/ml G-HSA for 24 hrs. All treatments and controls were carried out in serum free media containing 0.2% albumin. Following treatment, cell media were collected and used for an IL-6 ELISA.
# The IL-6 ELISA was carried out using human IL-6 DuoSet ELISA development kit as described by manufacturer (R&D Systems). Mouse anti-human IL-6 was used as the capture antibody (2 μg/ml) and biotinylated goat anti-human IL6 (200 ng/ml) was used as the detection antibody. The culture media were incubated with capture antibody for 2 h at room temperature in 96-well plates. The wells were washed three times with wash buffer (0.05% Tween-20 in phosphate buffered saline (PBS) pH 7.4) followed by incubation with detection antibody for 2 h at room temperature. Following three washes, the wells were incubated with Streptavidin-HRP for 20 min. Color development was read at 450 nm in a microplate reader.
# [2] = test system: MCP-1 secretion by endothelial cells (HAEC and HMVEC); assay: AGE-induced inflammatory response determined by MCP-1 ELISA; assay type: cell-based, human; settings: 100 ng/ml TNFα or 300 μg/ml G-HSA, 24 hrs, vs control medium (FIG. 2)
# Description: HAEC and HMVEC (Clonetics) were cultured and subcultured according to manufacturer in growth medium (Clonetics): basal medium containing hEGF, hydrocortisone, VEGF, HFGF-B (with heparin), long R3-IGF-1, ascorbic acid, gentamicin/amphotericin and 5% FBS. These cells were allowed to reach >90% confluency before being subjected to experimental treatments.
# Cells were treated with control medium or medium containing 100 ng/ml TNFα or 300 μg/ml G-HSA for 24 hrs. All treatments and controls were carried out in serum free media containing 0.2% albumin. Following treatment, media were collected and used for the MCP-1 ELISA.
# MCP-1 ELISA was carried out using a DuoSet ELISA Development System for Human MCP-1 as described by the manufacturer (R&D Systems). 2 ug/ml of mouse anti-human MCP-1 was used as the capture antibody and 100 ng/ml biotinylated goat anti-human MCP-1 was used as the detection antibody. The culture media were incubated with capture antibody for 2 h at room temperature in 96-well plates. The wells were washed three times with wash buffer (0.05% Tween-20 in phosphate buffered saline (PBS) pH 7.4) followed by incubation with detection antibody for 2 h at room temperature. Color development was read at 450 nm in a microplate reader.
substance,measurement,setting,value
Tumor necrosis factor α [TNFα],increase in IL-6 secretion,"[1]; 100 ng/ml TNFα or 300 μg/ml G-HSA, HMVEC, vs control medium (FIG. 1)",147%
same,increase in IL-6 secretion by endothelial cells,"[1]; 100 ng/ml TNFα, serum free media containing 0.2% albumin, vs control medium",greater than 2 fold
same,increase in MCP-1 secretion,[2],540%
